Tests used:
[1] = system: rabbit model for meibomianitis/meibomian gland dysfunction; assay: Conjunctival goblet-cell density, rabbit model for meibomianitis/meibomian gland dysfunction; type: in vivo, New Zealand white rabbits; conditions: intramuscular 50 mg/kg/d, five days each week, weeks 8-20 post-op
[2] = system: rabbit model for meibomianitis/meibomian gland dysfunction; assay: Corneal epithelial glycogen level, rabbit model for meibomianitis/meibomian gland dysfunction; type: in vivo, New Zealand white rabbits; conditions: intramuscular 50 mg/kg/d, five days each week, weeks 8-20 post-op

## CN(C)[C@@H]1C(O)=C(C(N)=O)C(=O)[C@@]2(O)C(O)=C3C(=O)c4c(O)cccc4[C@@](C)(O)[C@H]3C[C@@H]12.Cl [systemic tetracycline, tetracycline hydrochloride]
[1]
  effect on conjunctival goblet-cell density: no effect
[2]
  effect on corneal glycogen: no effect

— patent publication US6432934B1, “Methods and compositions for topical treatment of eye surface inflammation and related dry eye disease” (Advanced Vision Research, priority 1998, dated 2002)
